A short description of series [1]: Octanol-buffer partition coefficient, log D of the compound after 30 mins by shake flask method at pH 7.4.
The nature of a further series: in vitro. As to conditions: human, Caco-2.
Series [2] is described as follows: Dissociation constant, pKa of the compound at 10 mM by pressure-assisted capillary electrophoretic/mass spectrometric analysis. It is filed as physicochemical.
The nature of series [3]: Apparent permeability of the compound from apical to basal side of human Caco2 cells at 1 uM after 60 mins by LCMS analysis. It is filed as ADME, cell-based. As to conditions: Caco-2. A general note: Passage across Caco-2 layers is used to estimate intestinal permeability.

The source of these data is ChEMBL document CHEMBL2086377, “Synthesis and functionalization of cyclic sulfonimidamides: a novel chiral heterocyclic carboxylic Acid bioisostere” (ACS Med Chem Lett, 2012).

By logD is commonly meant the decadic logarithm of the distribution of all forms, ionised or not, between an organic phase and buffer at a given pH. A high value points to higher lipophilicity. In general, efflux ratio refers to a quotient of directional permeabilities that is used to spot active efflux. In general, pKa refers to the pH at which an ionisable group is half protonated. A lower pKa goes with a group that gives up its proton readily. As a reminder, the Papp A→B is the apparent permeability from the apical to the basolateral side of a cell layer.

Some results are limits rather than exact numbers.

Description for in vitro: Efflux ratio of apparent permeability of the compound from basal to apical to apical to basal side of human Caco2 cells at 1 uM after 60 mins by LCMS analysis

In the case of `N#Cc1cccc(-c2cccc(-c3nn[nH]n3)c2)c1`, the logD at 0.5 h in series [1] amounted to 0.7. Besides, in “in vitro”, the efflux ratio at 1 h, 1 µM was determined as 255. This compound also had a pKa at 10000 µM in series [2] of 4. Further, in series [3], the Papp A→B at 1 h, 1 µM was < 0.3 ×10⁻⁶ cm/s.

`Cc1ccc(-c2cccc(-c3nn[nH]n3)c2)cc1` showed a logD at 0.5 h in series [1] of 1.3. This compound displayed a pKa at 10000 µM in series [2] of 4.1.

As for `N#Cc1cccc(-c2cccc(C(=O)O)c2)c1`, in series [1], the logD at 0.5 h was found to be 0.3.

With `Cc1ccc(-c2cccc(C(=O)O)c2)cc1`, the pKa at 10000 µM in series [2] came out at 4.

The compound `C[C@@H]1N[S@](=O)(c2cccc(-c3cccc(C#N)c3)c2)=NC1=O` displayed a pKa at 10000 µM in series [2] of 5.8. Moreover, the Papp A→B at 1 h, 1 µM in series [3] came out at 2.3 ×10⁻⁶ cm/s.

Take `Cc1ccc(-c2cccc([S@]3(=O)=NC(=O)[C@H](C)N3)c2)cc1`: in series [2], the pKa at 10000 µM was determined as 6. Moreover, the Papp A→B at 1 h, 1 µM in series [3] was determined as 66 ×10⁻⁶ cm/s.
